Entries after “also recorded” stand apart in the source; their conditions may differ.
Legend:
PchA [1] = molecular target: T1, PchA (Pseudomonas aeruginosa, UniProt Q51508); settings: cited from earlier work
T1 sequence (Q51508 1-476): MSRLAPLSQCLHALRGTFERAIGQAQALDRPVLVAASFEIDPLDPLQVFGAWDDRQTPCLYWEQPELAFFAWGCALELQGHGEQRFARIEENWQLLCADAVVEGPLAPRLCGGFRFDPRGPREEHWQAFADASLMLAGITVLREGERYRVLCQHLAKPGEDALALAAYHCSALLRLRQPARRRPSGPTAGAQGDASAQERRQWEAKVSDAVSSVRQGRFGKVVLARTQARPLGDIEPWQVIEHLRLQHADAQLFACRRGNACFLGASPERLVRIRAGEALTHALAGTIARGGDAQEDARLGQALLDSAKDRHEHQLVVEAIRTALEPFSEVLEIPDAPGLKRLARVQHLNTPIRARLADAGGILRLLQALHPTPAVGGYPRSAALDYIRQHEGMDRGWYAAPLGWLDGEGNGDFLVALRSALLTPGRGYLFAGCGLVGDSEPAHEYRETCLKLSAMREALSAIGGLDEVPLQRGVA

Fur = settings: read-out: Kd for Fe(II) binding; cited from earlier work
EntC = molecular target: T2, EntC (Escherichia coli, UniProt P0AEJ2); assay: Steady-state chorismate isomerase activity, PchB-coupled salicylate fluorescence; assay type: biochemical
T2 sequence (P0AEJ2 1-391): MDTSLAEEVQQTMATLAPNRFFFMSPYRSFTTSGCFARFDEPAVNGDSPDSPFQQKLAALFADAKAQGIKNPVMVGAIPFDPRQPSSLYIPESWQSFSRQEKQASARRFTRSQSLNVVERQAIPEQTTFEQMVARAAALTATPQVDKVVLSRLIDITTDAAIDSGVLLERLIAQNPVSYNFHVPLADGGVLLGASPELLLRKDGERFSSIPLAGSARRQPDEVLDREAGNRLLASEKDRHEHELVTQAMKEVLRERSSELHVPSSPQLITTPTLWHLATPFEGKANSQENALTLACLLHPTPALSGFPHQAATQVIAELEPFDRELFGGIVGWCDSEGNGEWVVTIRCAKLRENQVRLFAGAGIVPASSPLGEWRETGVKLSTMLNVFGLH

Irp9 = Irp9 (Yersinia enterocolitica, UniProt Q9X9I8); assay type: biochemical; settings: saturating chorismate 20 μM; magnesium 0–20 mM
PchB = molecular target: T3, PchB (Pseudomonas aeruginosa, UniProt Q51507); assay: Steady-state PchB lyase activity; assay type: biochemical
T3 sequence (Q51507 1-101): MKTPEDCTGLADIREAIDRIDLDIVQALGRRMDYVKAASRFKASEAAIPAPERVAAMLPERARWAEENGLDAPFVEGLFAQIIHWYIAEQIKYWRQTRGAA

PchA [2] = molecular target: T1, PchA; assay type: biochemical
PchA, EntC, and Irp9 = assay: Dissociation constants by intrinsic fluorescence; assay type: binding; settings: read-out: Kd of E·Mg complexes (range over all three enzymes)
[3] = tested on: MST enzymes (PchA, EntC, Irp9); assay: Ligand binding rates by stopped-flow intrinsic fluorescence; settings: all three enzymes

CN1[C@@H]([C@H]2CSC(c3ccccc3O)=N2)SC[C@H]1C(=O)O [pyochelin]
feedback inhibition of PchA (PchA [1]): no inhibition

O=S(=O)([O-])[O-].O=S(=O)([O-])[O-].[Fe+2].[NH4+].[NH4+] [Fe(II), ferrous ammonium sulfate]
Kd (Fur): 1.2 µM
effect on PchA activity (PchA [1]; 100 μM): did not alter PchA activity

[Cl-].[Cl-].[Mg+2] [magnesium, magnesium chloride]
magnesium concentration at which maximal velocity was observed (EntC; saturating chorismate 200 μM, magnesium 0–20 mM): approximately 0.5 mM
magnesium concentrations at which inhibition is noted (EntC; steady state): over 0.5 mM
magnesium inhibition in the steady state (shape of magnesium dependence) (Irp9): normal hyperbolic shape; also recorded: did not exhibit the same inhibition
binding of and inhibition by magnesium (PchB): does not bind and is not inhibited
magnesium concentration at which maximal velocity was observed (PchA [2]): approximately 0.5 mM
magnesium concentrations at which inhibition is noted (PchA [2]; steady state): over 0.5 mM
Kd (PchA, EntC, and Irp9): 130 to 190 µM
observed rate constant of ligand binding (bound from ∼1.0 ms dead time) ([3]; binding complete within stopped-flow dead time, 25 °C): greater than 1600 s^–1
association rate constants (order of magnitude) ([3]; suggested from dead-time bound): ~10^8 M^–1 s^–1

N[C@@H](CS)C(=O)O [cysteine]
feedback inhibition of PchA (PchA [1]): no inhibition
